Converted amounts (≈) assume the structure as drawn. Read-outs that look alike come from different tables or passages of the source.
How the values were obtained:
[1] = test system: FeEnt utilization by A. baumannii; assay: FeEnt siderophore nutrition test in A. baumannii; format: cell-based, Acinetobacter baumannii
[2] = test system: FeEnt utilization by E. coli OKN3 + pITS23 (FepA); assay: Siderophore nutrition test, FeEnt; format: cell-based, Escherichia coli; conditions: for growth halo phenotype in siderophore nutrition test, in words: 100 μM compound (FIG. 6A)
[3] = test system: Fc utilization by E. coli OKN3 + pITS23 (transported by FhuA); assay: Siderophore nutrition test, Fc; format: cell-based, Escherichia coli
[4] = test system: A. baumannii 17978; assay: Minimal inhibitory concentration assay in LB, A. baumannii; format: cell-based, Acinetobacter baumannii
[5] = test system: killing of E. coli MG1655 by colicin B (FepA, TonB-dependent); format: cell-based, Escherichia coli
[6] = test system: TonB; format: cell-based, Escherichia coli
[7] = test system: E. coli MG1655; assay: Minimal inhibitory concentration assay in LB; format: cell-based, Escherichia coli; conditions: two-fold dilutions up to […]
[8] = test system: TonB-dependent FeEnt uptake through FepA (E. coli OKN3/pITS23FepAS271C-FM); assay: microbe, parasite or virus in culture; format: cell-based, Escherichia coli; conditions: for IC50: read-out: 50% Inhibition, Concentration (IC50)
[9] = test system: TonB-dependent FeEnt uptake through FepAS271C-FM; format: cell-based, Escherichia coli
[10] = A. baumannii, 50 μM FeEnt, 100 μM compound in DMSO, untreated 1.16 ± 0.065
[11] = E. coli OKN3 + pITS23, 50 μM FeEnt, 100 μM compound in DMSO, untreated 1.45 ± 0.123
[12] = E. coli OKN3 + pITS23, 50 μM Fc, 100 μM compound in DMSO, untreated 1.54 ± 0.105
[13] = Acinetobacter baumannii, 17978, read-out: MIC
[14] = percent killing of MG1655 by ColB in the presence of sub-toxic concentration of compound in DMSO, untreated 98.34 ± 2.38
[15] = Escherichia coli, MG1655, E. coli MG1655 in LB, dash = MIC >[…], read-out: MIC
[16] = halo increase >5% or no halo, killing prevented by >5%
[17] = Escherichia coli, […], cells pre-incubated 30 minutes at 37° C. with inhibitor
[18] = […], cells pre-incubated 30 minutes at 37° C. with inhibitor

Compound: CC(=O)[O-].CC(=O)[O-].[Cd+2] [Cadmium acetate]
- FeEnt Halo [1]: 0 cm
- FeEnt Halo [2]: 2.22 ± 0.076 cm
- Fc Halo [3]: 2.08 ± 0.42 cm
- MIC ([4]; read-out: MIC): 256 µM
- % Colicin B killing [5]: 98.4 ± 0.43%
- inhibition in the secondary screens (FeEnt utilization, Fc utilization, ColB killing) [6]: inhibitory in two of the three secondary assays

Compound: O=c1c2ccccc2[se]n1-c1ccccc1 [Ebselen]
- FeEnt Halo [1, 10]: 0 cm
- FeEnt Halo [2, 11]: 0 cm
- Fc Halo [3, 12]: 0 cm
- MIC ([7]; E. coli MG1655 in LB, dash = MIC >[…], read-out: MIC): 128 µM (≈ 35.1 µg/mL)
- MIC [4, 13]: 32 µM (≈ 8.77 µg/mL)
- % Colicin B killing [5, 14]: 93.4 ± 2.25%

Compound: arsenate
- 100% Inhibition, Concentration (IC100) [8]: 180 mM
- IC50 [8]: 90 mM

Compound: O=c1oc2c(O)c(O)cc3c(=O)oc4c(O)c(O)cc1c4c23 [Ellagic acid]
- FeEnt Halo [1, 10]: 1.08 ± 0.041 cm
- growth halo phenotype in siderophore nutrition test, in words [2]: two unique halos
- FeEnt Halo [2, 11]: 1.61 ± 0.075 cm
- Fc Halo [3, 12]: 1.36 ± 0.197 cm
- MIC [7, 15]: > 512 µM
- MIC [4, 13]: 256 µM (≈ 77.4 µg/mL)
- % Colicin B killing [5, 14]: 82.9 ± 3.75%
- inhibition in the secondary screens (FeEnt utilization, Fc utilization, ColB killing) [6, 16]: inhibitory in two of the three secondary assays

Compound: Cc1cc(N)c2ccccc2[n+]1CCCCCCCCCC[n+]1c(C)cc(N)c2ccccc21 [Dequalinium Chloride]
- FeEnt Halo [1, 10]: 1.14 ± 0.017 cm
- FeEnt Halo [2, 11]: 1.43 ± 0.110 cm
- Fc Halo [3, 12]: 1.55 ± 0.131 cm
- MIC [7, 15]: > 512 µM
- MIC [4, 13]: > 512 µM
- % Colicin B killing [5, 14]: 98.7 ± 1.10%

Compound: COc1cccc(O)c1O [3-Methoxycatechol]
- FeEnt Halo [1, 10]: 1.12 ± 0.025 cm
- FeEnt Halo [2, 11]: 1.50 ± 0.100 cm
- Fc Halo [3, 12]: 1.60 ± 0.500 cm
- MIC [7, 15]: > 512 µM
- MIC [4, 13]: > 512 µM
- % Colicin B killing [5, 14]: 98.2 ± 2.27%

Compound: O=C1C(Cl)=C(Cl)C(=O)C(Cl)=C1Cl [P-Chloranil]
- FeEnt Halo [1, 10]: 1.14 ± 0.015 cm
- FeEnt Halo [2, 11]: 1.51 ± 0.148 cm
- Fc Halo [3, 12]: 1.57 ± 0.059 cm
- MIC ([7]; E. coli MG1655 in LB, […]): — (If MIC >512 μM, value not listed)
- MIC ([4]; A. baumannii 17978 in LB, two-fold dilutions up to […], […]): — (If MIC >512 μM, value not listed)
- % Colicin B killing [5]: 93.0 ± 3.36%
- differential impact on transport of FeEnt, Fc and ColB, in words [6]: inhibited ColB but not FeEnt or Fc transport

Compound: N.N.O=C([O-])C1(C(=O)[O-])CCC1.[Pt+2] [Carboplatin]
- FeEnt Halo [1, 10]: 1.10 ± 0.050 cm
- FeEnt Halo [2, 11]: 1.54 ± 0.031 cm
- Fc Halo [3, 12]: 1.62 ± 0.015 cm
- MIC ([7]; E. coli MG1655 in LB, dash = MIC >[…]): — (If MIC >512 μM, value not listed)
- MIC ([4]; A. baumannii 17978 in LB, two-fold dilutions up to […], dash = MIC >[…]): — (If MIC >512 μM, value not listed)
- % Colicin B killing [5, 14]: 100 ± 0.00%

Compound: C[C@@](Cc1ccc(O)c(O)c1)(NN)C(=O)O [Carbidopa]
- FeEnt Halo [1, 10]: 1.10 ± 0.015 cm
- FeEnt Halo [2, 11]: 1.58 ± 0.089 cm
- Fc Halo [3, 12]: 1.65 ± 0.055 cm
- MIC [7, 15]: > 512 µM
- MIC [4, 13]: > 512 µM
- % Colicin B killing [5, 14]: 96.0 ± 2.0%

Compound: O=[N+]([O-])c1ccc(O)c([N+](=O)[O-])c1 [DNP, 2,4-dinitrophenol]
- IC50 [8, 17]: 0.75 mM
- effect on FeEnt binding and transport in words ([8]; FeEnt plus energy poison added to cells (FIG. 1A)): did not affect binding but prevented transport
- 100% Inhibition, Concentration (IC100) [8, 18]: 1.5 mM

Compound: [N-]=[N+]=[N-] [Azide, azide]
- 100% Inhibition, Concentration (IC100) [8]: 18 mM
- IC50 [8]: 9 mM

Compound: O=c1cc(-c2ccccc2)oc2cc(O)c(O)c(O)c12 [Baicalein]
- FeEnt Halo [1, 10]: 1.23 ± 0.098 cm
- growth halo phenotype in siderophore nutrition test, in words [2]: two unique halos
- FeEnt Halo [2, 11]: 1.65 ± 0.050 cm
- Fc Halo [3, 12]: 1.65 ± 0.045 cm
- MIC [7, 15]: > 512 µM
- MIC [4, 13]: > 512 µM
- % Colicin B killing [5, 14]: 54.6 ± 13.2%
- inhibition in the secondary screens (FeEnt utilization, Fc utilization, ColB killing) [6, 16]: inhibition in all three of the three secondary screens

Compound: Thimerosal
- FeEnt Halo [1]: 0 cm
- FeEnt Halo [2]: 0 cm
- Fc Halo [3]: 0 cm
- MIC ([4]; read-out: MIC): 1 µM
- % Colicin B killing [5]: 98.6 ± 0.98%
- inhibition in the secondary screens (FeEnt utilization, Fc utilization, ColB killing) [6]: inhibition in all three of the three secondary screens

Compound: N#CC(C#N)=NNc1cccc(Cl)c1 [CCCP, carbonyl cyanide m-chlorophenylhydrazone]
- IC50 [8, 17]: 0.005 mM
- 100% Inhibition, Concentration (IC100) [8, 18]: 0.01 mM
- fluorescence recovery (FeEnt uptake) in words ([9]; 96-well plate, 10 nM FeEnt, CCCP 20 uM, 50 min time course (FIG. 2B)): fully prevented fluorescence recovery
- recovered fluorescence in words ([9]; 384-well plate format, increasing concentrations of CCCP (FIG. 3)): dose-responsive decrease in recovered fluorescence

Compound: Zinc pyrithione
- FeEnt Halo [1]: 0 cm
- FeEnt Halo [2]: 0 cm
- Fc Halo [3]: 0 cm
- MIC ([4]; read-out: MIC): 16 µM
- % Colicin B killing [5]: 20.4 ± 5.90%
- inhibition in the secondary screens (FeEnt utilization, Fc utilization, ColB killing) [6]: inhibition in all three of the three secondary screens

— patent US10604782B2, “High-throughput fluorescent screening assay for inhibitors of gram-negative bacterial iron uptake” (Kansas State University Research Foundation, priority 2015, dated 2020)
